We go through 10 compounds from patent US20250179051A1, “PYRIMIDINLY-OXY-QUINOLINE BASED HERBICIDAL COMPOUNDS” (SYNGENTA CROP PROTECTION AG, priority 2022, published 2025).

SMILES strings stand for the structures.

Format in all cases: in vivo
Common to all, as to settings: 250 g/ha, evaluated after 13 days, five-point scale

For assay [1], the system named is Amaranthus retoflexus (AMARE). Put plainly: Pre-emergence herbicide glasshouse test. On the procedure:
(§1) Seeds of a variety of test species are sown in standard soil in pots Amaranthus retoflexus (AMARE), Amaranthus palmeri (AMAPA), Echinochloa crus-galli (ECHCG), Ipomoea hederacea (IPOHE), Setaria faberi (SETFA). After cultivation for one day (pre-emergence) or after 8 days cultivation (post-emergence) under controlled conditions in a glasshouse (at 24/16° C., day/night; 14 hours light; 65% humidity), the plants are sprayed with an aqueous spray solution derived from the formulation of the technical active ingredient in acetone/water (50:50) solution containing 0.5% Tween 20 (polyoxyethelyene sorbitan monolaurate, CAS RN 9005-64-5). Compounds are applied at 250 g/ha unless otherwise stated. The test plants are then grown in a glasshouse under controlled conditions in a glasshouse (at 24/16° C., day/night; 14 hours light; 65% humidity) and watered twice daily. After 13 days for pre and post-emergence, the test is evaluated for the percentage damage caused to the plant. The biological activities are shown in the following table on a five-point scale (5=81-100%; 4=61-80%; 3=41-60%; 2=21-40%; 1=0-20%).

Assay [2] relates to Setaria faberi (SETFA). Put plainly: Pre-emergence herbicide glasshouse test. On the procedure:
as §1

Assay [3] relates to Echinochloa crus-galli (ECHCG). Put plainly: Pre-emergence herbicide glasshouse test. On the procedure: as §1
Assay [4] concerns Ipomoea hederacea (IPOHE). Put plainly: Pre-emergence herbicide glasshouse test. The method, then:
as §1

For assay [5], the system named is Amaranthus palmeri (AMAPA). Put plainly: Pre-emergence herbicide glasshouse test. The method, then: as §1
The subject of assay [6] is Amaranthus retoflexus (AMARE). Put plainly: Post-emergence herbicide glasshouse test. On the procedure: as §1
The test system of assay [7] is Setaria faberi (SETFA). Put plainly: Post-emergence herbicide glasshouse test. The method, then: as §1
The subject of assay [8] is Echinochloa crus-galli (ECHCG). Put plainly: Post-emergence herbicide glasshouse test. The method, then: as §1
For assay [9], the system named is Ipomoea hederacea (IPOHE). Put plainly: Post-emergence herbicide glasshouse test. The method, then: as §1
In assay [10] the test system is Amaranthus palmeri (AMAPA). Put plainly: Post-emergence herbicide glasshouse test. The method, then: as §1

With `ON=CCCc1nc(C(F)(F)F)nc2cccc(Oc3ncc(Cl)cn3)c12` [Compound 1.021], the “percentage damage caused to the plant, AMARE” value is listed as 4 (4=61-80%) in assay [1] and 5 (5=81-100%) in assay [6]. Moreover, the “percentage damage caused to the plant, SETFA” value in assay [2] is listed as 3 (3=41-60%); in assay [7], 2 (2=21-40%). The “percentage damage caused to the plant, ECHCG” value in assay [3] is reported as 3 (3=41-60%); in assay [8], 2 (2=21-40%). Also, the “percentage damage caused to the plant, IPOHE” value in [4] is recorded as 1 (1=0-20%); in [9], 2 (2=21-40%). Besides, the “percentage damage caused to the plant, AMAPA” value in assay [5] and in [10] was 4 (4=61-80%) each time.

Consider `CO/N=C\CCc1nc(C(F)(F)F)nc2cccc(Oc3ncc(Cl)cn3)c12` [Compound 1.022, (Z)-3-[5-(5-chloropyrimidin-2-yl)oxy-2-(trifluoromethyl)quinazolin-4-yl]-N-methoxy-propan-1-imine], for which the results for the “percentage damage caused to the plant, AMARE” value in [1] and in [6] were 5 (5=81-100%) and 4 (4=61-80%), respectively. The entries for the “percentage damage caused to the plant, SETFA” value in assay [2] and in assay [7] were 5 (5=81-100%) and 4 (4=61-80%), respectively. For the same compound, the “percentage damage caused to the plant, ECHCG” value in assay [3] is listed as 5 (5=81-100%); in [8], 4 (4=61-80%). The “percentage damage caused to the plant, IPOHE” value in [4] was 4 (4=61-80%); in assay [9], 3 (3=41-60%). The “percentage damage caused to the plant, AMAPA” value in [5] was 5 (5=81-100%); in assay [10] it was 4 (4=61-80%).

On to `CON1CCC(CCc2nc(C(F)(F)F)nc3cccc(Oc4ncc(Cl)cn4)c23)CC1` [Compound 1.023, 5-(5-chloropyrimidin-2-yl)oxy-4-[2-(1-methoxy-4-piperidyl)ethyl]-2-(trifluoromethyl)quinazoline], for which the “percentage damage caused to the plant, AMARE” value in [1] and in [6] was 4 (4=61-80%) each time. The “percentage damage caused to the plant, SETFA” value in assay [2] and in assay [7] was 1 (1=0-20%) in each case. The “percentage damage caused to the plant, ECHCG” value is 2 (2=21-40%) in [3] and 1 (1=0-20%) in assay [8]. The “percentage damage caused to the plant, IPOHE” value is reported as 1 (1=0-20%) in assay [4] and 3 (3=41-60%) in assay [9]. Also, the “percentage damage caused to the plant, AMAPA” value in assay [5] and in [10] was 4 (4=61-80%) in each case.

For `COCCCc1nc(C(F)(F)F)nc2cccc(Oc3ncc(Cl)cn3)c12` [Compound 1.024], the “percentage damage caused to the plant, AMARE” value is 5 (5=81-100%) in assay [1] and 4 (4=61-80%) in assay [6]. Also, the “percentage damage caused to the plant, SETFA” value in [2] and in [7] was 4 (4=61-80%) throughout. Further, the “percentage damage caused to the plant, ECHCG” value in assay [3] and in assay [8] was 5 (5=81-100%) in each case. Further, the results for the “percentage damage caused to the plant, IPOHE” value in assay [4] and in assay [9] were 5 (5=81-100%) and 3 (3=41-60%), respectively. Also, the “percentage damage caused to the plant, AMAPA” value is recorded as 5 (5=81-100%) in assay [5] and 3 (3=41-60%) in assay [10].

For `CO/N=C/CCc1nc(C(F)(F)F)nc2cccc(Oc3ncc(Cl)cn3)c12` [Compound 1.025, (E)-3-[5-(5-chloropyrimidin-2-yl)oxy-2-(trifluoromethyl)quinazolin-4-yl]-N-methoxy-propan-1-imine], the “percentage damage caused to the plant, AMARE” value in assay [1] and in assay [6] was 5 (5=81-100%) throughout. For the same compound, the “percentage damage caused to the plant, SETFA” value in assay [2] and in [7] was 5 (5=81-100%) each time. Further, the “percentage damage caused to the plant, ECHCG” value in assay [3] and in assay [8] was 5 (5=81-100%) throughout. Also, the “percentage damage caused to the plant, IPOHE” value in assay [4] and in assay [9] was 4 (4=61-80%) in each case. The “percentage damage caused to the plant, AMAPA” value was 5 (5=81-100%) in assay [5] and 4 (4=61-80%) in assay [10].

Turning to `O=C(c1ccc(Br)cn1)c1nc(C(F)(F)F)nc2cccc(Oc3ncc(Cl)cn3)c12` [Compound 1.026], the “percentage damage caused to the plant, AMARE” value is 4 (4=61-80%) in assay [1] and 1 (1=0-20%) in [6]. In addition, the “percentage damage caused to the plant, SETFA” value in assay [2] and in assay [7] was 1 (1=0-20%) in each case. Also, the “percentage damage caused to the plant, ECHCG” value in assay [3] and in [8] was 1 (1=0-20%) in each case. For the same compound, the “percentage damage caused to the plant, IPOHE” value in assay [4] and in assay [9] was 1 (1=0-20%) each time. Besides, the “percentage damage caused to the plant, AMAPA” value in assay [5] is 4 (4=61-80%); in assay [10] it was 2 (2=21-40%).

For `O=C(c1ccc(F)cn1)c1nc(C(F)(F)F)nc2cccc(Oc3ncc(Cl)cn3)c12` [Compound 1.027], the “percentage damage caused to the plant, AMARE” value in assay [1] and in [6] was 2 (2=21-40%) throughout. Further, the “percentage damage caused to the plant, SETFA” value in assay [2] and in assay [7] was 1 (1=0-20%) throughout. Also, the “percentage damage caused to the plant, ECHCG” value in [3] and in [8] was 1 (1=0-20%) each time. Moreover, the “percentage damage caused to the plant, IPOHE” value in assay [4] and in assay [9] was 1 (1=0-20%) throughout. Moreover, the entries for the “percentage damage caused to the plant, AMAPA” value in assay [5] and in [10] were 2 (2=21-40%) and 1 (1=0-20%), respectively.

As for `CC(=O)c1nc(C(F)(F)F)nc2cccc(Oc3ncc(Cl)cn3)c12` [Compound 1.028, 1-[5-(5-chloropyrimidin-2-yl)oxy-2-(trifluoromethyl)quinazolin-4-yl]ethanone], the “percentage damage caused to the plant, AMARE” value was 5 (5=81-100%) in [1] and 4 (4=61-80%) in assay [6]. The results for the “percentage damage caused to the plant, SETFA” value in [2] and in assay [7] were 3 (3=41-60%) and 2 (2=21-40%), respectively. The results for the “percentage damage caused to the plant, ECHCG” value in assay [3] and in assay [8] were 2 (2=21-40%) and 1 (1=0-20%), respectively. Further, the “percentage damage caused to the plant, IPOHE” value in [4] is 1 (1=0-20%); in assay [9], 3 (3=41-60%). The “percentage damage caused to the plant, AMAPA” value is given as 5 (5=81-100%) in assay [5] and 4 (4=61-80%) in assay [10].

Turning to `O=C(c1ccccn1)c1nc(C(F)(F)F)nc2cccc(Oc3ncc(Cl)cn3)c12` [Compound 1.029, [5-(5-chloropyrimidin-2-yl)oxy-2-(trifluoromethyl)quinazolin-4-yl]-(2-pyridyl) methanone], the “percentage damage caused to the plant, AMARE” value in [1] and in assay [6] was 1 (1=0-20%) in each case. Also, the “percentage damage caused to the plant, SETFA” value in assay [2] and in assay [7] was 1 (1=0-20%) in each case. Besides, the “percentage damage caused to the plant, ECHCG” value in assay [3] and in assay [8] was 1 (1=0-20%) throughout. In addition, the “percentage damage caused to the plant, IPOHE” value in assay [4] and in assay [9] was 1 (1=0-20%) each time. In addition, the “percentage damage caused to the plant, AMAPA” value in assay [5] and in assay [10] was 1 (1=0-20%) each time.

On to `O=C(c1cccnc1)c1nc(C(F)(F)F)nc2cccc(Oc3ncc(Cl)cn3)c12` [Compound 1.030], for which the “percentage damage caused to the plant, AMARE” value in [1] and in [6] was 5 (5=81-100%) each time. For the same compound, the “percentage damage caused to the plant, SETFA” value is on record as 4 (4=61-80%) in [2] and 2 (2=21-40%) in assay [7]. The “percentage damage caused to the plant, ECHCG” value in assay [3] is recorded as 4 (4=61-80%); in assay [8], 2 (2=21-40%). The “percentage damage caused to the plant, IPOHE” value in [4] was 1 (1=0-20%); in [9], 2 (2=21-40%). Moreover, the “percentage damage caused to the plant, AMAPA” value in assay [5] and in assay [10] was 5 (5=81-100%) in each case.
